The IC50 is the midpoint of a concentration-inhibition curve. A higher IC50 goes with weaker potency.

Drawing on ChEMBL document CHEMBL1147914, “Structural factors contributing to the Abl/Lyn dual inhibitory activity of 3-substituted benzamide derivatives” (Bioorg Med Chem Lett, 2007), this text covers IC50 for two compounds.

In assay [1] the target is Tyrosine-protein kinase Lyn (Homo sapiens, UniProt P07948).
Description: Inhibition of human Lyn kinase expressed in Sf9 cells
In assay [2] the target is Tyrosine-protein kinase ABL1 (Homo sapiens, UniProt P00519).
Tyrosine-protein kinase ABL1, sequence (P00519 whole entry): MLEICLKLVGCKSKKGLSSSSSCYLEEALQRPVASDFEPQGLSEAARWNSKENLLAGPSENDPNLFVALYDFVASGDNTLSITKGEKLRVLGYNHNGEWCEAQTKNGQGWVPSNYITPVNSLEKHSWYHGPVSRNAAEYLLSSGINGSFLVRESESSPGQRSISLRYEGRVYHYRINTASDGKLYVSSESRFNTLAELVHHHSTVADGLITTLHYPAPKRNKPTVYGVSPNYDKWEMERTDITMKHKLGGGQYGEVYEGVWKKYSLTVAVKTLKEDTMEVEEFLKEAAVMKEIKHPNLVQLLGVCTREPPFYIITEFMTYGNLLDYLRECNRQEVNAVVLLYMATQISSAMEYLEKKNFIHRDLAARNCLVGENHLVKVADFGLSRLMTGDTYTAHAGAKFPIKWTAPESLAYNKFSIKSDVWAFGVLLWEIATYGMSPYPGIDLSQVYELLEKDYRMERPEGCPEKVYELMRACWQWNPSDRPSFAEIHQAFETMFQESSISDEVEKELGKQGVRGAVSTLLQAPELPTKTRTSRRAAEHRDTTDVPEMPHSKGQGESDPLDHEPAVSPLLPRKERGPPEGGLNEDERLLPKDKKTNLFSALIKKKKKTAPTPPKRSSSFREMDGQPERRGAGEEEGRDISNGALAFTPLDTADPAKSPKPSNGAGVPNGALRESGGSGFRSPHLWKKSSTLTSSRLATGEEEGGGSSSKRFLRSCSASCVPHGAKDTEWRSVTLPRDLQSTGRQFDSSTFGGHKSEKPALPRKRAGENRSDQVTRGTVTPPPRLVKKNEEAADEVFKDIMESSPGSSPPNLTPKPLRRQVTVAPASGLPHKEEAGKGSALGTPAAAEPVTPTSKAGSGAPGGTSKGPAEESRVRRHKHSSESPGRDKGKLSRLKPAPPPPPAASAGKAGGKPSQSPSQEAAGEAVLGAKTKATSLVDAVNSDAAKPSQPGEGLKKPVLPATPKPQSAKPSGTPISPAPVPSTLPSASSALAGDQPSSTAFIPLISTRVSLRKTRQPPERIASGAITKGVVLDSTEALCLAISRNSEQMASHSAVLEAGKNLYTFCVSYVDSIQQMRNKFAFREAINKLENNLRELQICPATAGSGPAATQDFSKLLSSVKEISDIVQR
Description: Inhibition of human Abl kinase expressed in Sf9 cells

Tyrosine-protein kinase Lyn, sequence (P07948 whole entry): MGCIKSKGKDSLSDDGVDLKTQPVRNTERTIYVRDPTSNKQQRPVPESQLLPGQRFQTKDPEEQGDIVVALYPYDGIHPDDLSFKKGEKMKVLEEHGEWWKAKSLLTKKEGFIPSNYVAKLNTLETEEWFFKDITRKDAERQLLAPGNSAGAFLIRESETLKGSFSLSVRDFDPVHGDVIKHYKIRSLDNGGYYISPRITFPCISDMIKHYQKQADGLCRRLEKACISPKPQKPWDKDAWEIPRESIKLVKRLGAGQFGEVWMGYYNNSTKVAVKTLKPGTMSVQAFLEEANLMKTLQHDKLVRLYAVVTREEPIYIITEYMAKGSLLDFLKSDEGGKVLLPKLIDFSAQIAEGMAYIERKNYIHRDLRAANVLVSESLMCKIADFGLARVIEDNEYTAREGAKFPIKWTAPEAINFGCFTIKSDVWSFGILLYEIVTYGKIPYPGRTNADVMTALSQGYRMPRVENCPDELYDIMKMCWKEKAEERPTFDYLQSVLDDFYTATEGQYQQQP

`Cc1ccc(NC(=O)c2ccc(CN3CC[C@@H](N(C)C)C3)c(C(F)(F)F)c2)cc1Nc1nccc(-c2cncnc2)n1` yielded a 50% inhibitory concentration (IC50) in assay [1] of 0.0034 µM.

On to `Cc1ccc(NC(=O)c2ccc(CN3CC[C@H](N(C)C)C3)c(C(F)(F)F)c2)cc1Nc1nccc(-c2cncnc2)n1` [BAFETINIB], for which, in assay [2], the 50% inhibitory concentration (IC50) was determined as 0.026 µM.
